Source: ChEMBL document CHEMBL1157480, “Petrosamine, a potent anticholinesterase pyridoacridine alkaloid from a Thai marine sponge Petrosia n. sp” (Bioorg Med Chem, 2008)
pIC50: −log10 of the molar value.

Biological target: Acetylcholinesterase (Torpedo californica, UniProt P04058)
Experiment: Inhibition of Torpedo californica AchE activity by Ellman's assay
Design: species or system Tetronarce californica

Chain of Acetylcholinesterase (P04058 whole entry): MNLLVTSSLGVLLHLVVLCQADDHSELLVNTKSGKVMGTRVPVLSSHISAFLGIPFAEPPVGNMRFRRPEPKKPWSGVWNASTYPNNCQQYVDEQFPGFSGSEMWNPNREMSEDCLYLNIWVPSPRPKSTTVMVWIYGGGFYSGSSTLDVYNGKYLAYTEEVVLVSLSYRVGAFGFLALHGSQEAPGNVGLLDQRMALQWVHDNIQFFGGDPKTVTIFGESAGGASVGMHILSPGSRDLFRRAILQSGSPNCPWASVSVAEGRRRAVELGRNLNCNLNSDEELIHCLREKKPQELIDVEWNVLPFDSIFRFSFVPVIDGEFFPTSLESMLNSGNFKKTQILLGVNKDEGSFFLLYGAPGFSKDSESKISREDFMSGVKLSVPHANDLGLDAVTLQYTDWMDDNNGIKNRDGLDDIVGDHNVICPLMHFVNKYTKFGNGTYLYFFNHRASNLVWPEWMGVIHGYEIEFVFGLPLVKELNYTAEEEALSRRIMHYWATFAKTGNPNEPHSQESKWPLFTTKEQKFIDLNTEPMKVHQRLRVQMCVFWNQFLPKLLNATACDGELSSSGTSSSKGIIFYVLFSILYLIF

Cn1cc2c(cc1=O)-c1nc3cc(Br)ccc3c3ccnc(c13)C2=O
pIC50: < 3.52

Cn1ccc2c3nc4cc(Br)ccc4c4c3c(c(=O)c-2c1)[N+](C)(C)CC4=O [PETROSAMINE]
pIC50: 7.04
